# Results taken from US5663162A, “Cephem derivatives” (priority 1993, dated 1997).
# Tests used:
# C. freundii GN346/16 = experiment: Antibacterial activity test, MIC by two-fold dilution method; assay type: cell-based; settings: Citrobacter freundii; C. freundii GN346/16; 10^6 CFU/ml, 35° C., 18 to 20 hours; read-out: Minimum Inhibition Concentration
# Procedure: (§1) The measurement was carried out in the following manner: 10^6 CFU/ml of a bacterium to be tested was inoculated on a Medium N for disc susceptibility test (manufactured by Nissui Pharmaceutical Co., Ltd.), and cultivated at 35° C. for 18 to 20 hours.
# E. cloacae G-0008 = experiment: as above; assay type: cell-based; settings: Enterobacter cloacae, G0008; E. cloacae G-0008; 10^6 CFU/ml, 35° C., 18 to 20 hours; read-out: Minimum Inhibition Concentration
# Procedure: as §1
# E. coli NIHJ JC-2 = experiment: as above; assay type: cell-based; settings: Escherichia coli, NIHJJC2; E. coli NIHJ JC-2; 10^6 CFU/ml, 35° C., 18 to 20 hours; read-out: Minimum Inhibition Concentration
# Procedure: as §1
# K. pneumoniae PC1602 = experiment: as above; assay type: cell-based; settings: Klebsiella pneumoniae; K. pneumoniae PC1602; 10^6 CFU/ml, 35° C., 18 to 20 hours; read-out: Minimum Inhibition Concentration
# Procedure: as §1
# M. morganii 1510/S-1 = experiment: as above; assay type: cell-based; settings: Morganella morganii, 1510/S1; M. morganii 1510/S-1; 10^6 CFU/ml, 35° C., 18 to 20 hours; read-out: Minimum Inhibition Concentration
# Procedure: as §1
# P. aeruginosa E-2 = experiment: as above; assay type: cell-based; settings: Pseudomonas aeruginosa, E2, read-out: Minimum Inhibition Concentration
# Procedure: as §1
# P. aeruginosa GN10362 = experiment: as above; assay type: cell-based; settings: Pseudomonas aeruginosa, GN10362, read-out: Minimum Inhibition Concentration
# Procedure: as §1
# P. vulgaris GN76 = experiment: as above; assay type: cell-based; settings: Proteus vulgaris, GN76, read-out: Minimum Inhibition Concentration
# Procedure: as §1
# S. Aureus 209P JC-1 = experiment: as above; assay type: cell-based; settings: Staphylococcus aureus; S. Aureus 209P JC-1; 10^6 CFU/ml, 35° C., 18 to 20 hours; read-out: Minimum Inhibition Concentration
# Procedure: as §1
# S. epidermidis ATCC14990 = experiment: as above; assay type: cell-based; settings: Staphylococcus epidermidis; S. epidermidis ATCC14990; 10^6 CFU/ml, 35° C., 18 to 20 hours; read-out: Minimum Inhibition Concentration
# Procedure: as §1
# S. marcescens No. 1 = experiment: as above; assay type: cell-based; settings: Serratia marcescens; S. marcescens No. 1; 10^6 CFU/ml, 35° C., 18 to 20 hours; read-out: Minimum Inhibition Concentration
# Procedure: as §1
# S. Aureus 126 = experiment: as above; assay type: cell-based, Staphylococcus aureus (methicillin-resistant, MRSA); settings: Staphylococcus aureus, MRSA, read-out: Minimum Inhibition Concentration
# Procedure: as §1
# S. Aureus 133 = experiment: as above; assay type: cell-based, Staphylococcus aureus (methicillin-resistant, MRSA); settings: Staphylococcus aureus, MRSA, read-out: Minimum Inhibition Concentration
# Procedure: as §1
# [1] = Acute toxicity test in ICR mice; assay type: in vivo; settings: mouse, in vivo, iv
# Procedure: (§2) 0.5 ml of a pharmaceutical solution prepared by dissolving a compound of the present invention in a physiological saline solution for injection (80 mg/ml) was injected to the caudal veins of ICR mice (4 weeks old, male, body weight: approx. 20 g). Two weeks after the administration, the mice were observed whether they were dead or not. […] Therefore, the LD50 of this compound is >2 g/kg (>40 mg/mouse).
# ICR mice = experiment: Acute toxicity test in ICR mice; assay type: in vivo
# Procedure: as §2
smiles,measurement,setting,value
"CCO/N=C(\C(=O)N[C@@H]1C(=O)N2C(C(=O)[O-])=C(C[n+]3cc4sccn4c3CNC=O)CS[C@H]12)c1nsc(N)n1 [Example 49, (6R,7R)-7-[(Z)-2-(5-Amino-1,2,4-thiadiazol-3-yl)-2-ethoxyiminoacetamide]-3-[5-(formylamino)methylimidazo[5,1-b]thiazolium-6-yl]methyl-3-cephem-4-carboxylate]",MIC,C. freundii GN346/16,0.05 µg/mL
same,MIC,E. cloacae G-0008,0.05 µg/mL
same,MIC,E. coli NIHJ JC-2,0.05 µg/mL
same,MIC,K. pneumoniae PC1602,0.05 µg/mL
same,MIC,M. morganii 1510/S-1,≤ 0.025 µg/mL
same,MIC,P. aeruginosa E-2,1.56 µg/mL
same,MIC,P. aeruginosa GN10362,1.56 µg/mL
same,MIC,P. vulgaris GN76,0.39 µg/mL
same,MIC,S. Aureus 209P JC-1,0.78 µg/mL
same,MIC,S. epidermidis ATCC14990,0.78 µg/mL
same,MIC,S. marcescens No. 1,0.1 µg/mL
same,MIC,S. Aureus 126,6.25 µg/mL
same,MIC,S. Aureus 133,6.25 µg/mL
same,LD50 at 336 h,[1],> 2000 mg/kg
same,survival two weeks after administration,"ICR mice; ICR mice, 0.5 ml of 80 mg/ml solution, caudal vein, 3 cases",all (3 cases) alive
same,LD50,"ICR mice; mouse, in vivo",> 40 mg/mouse
